Test results reported in patent US9284325B2, “Spectinamides as anti-tuberculosis agents” (UNIVERSITY OF TENNESSEE RESEARCH FOUNDATION, priority 2009, dated 2016).
Structures can show the parent of a compound that is named as a salt.

Legend:
[1] = test system: Proteus vulgaris ATCC 33420; assay: MIC determination by microbroth dilution; assay type: cell-based; settings: ATCC33420
[2] = test system: M. tuberculosis H37Rv; assay: MIC determination by microbroth dilution, anti-tuberculosis activity; assay type: cell-based, Mycobacterium tuberculosis; settings: Mycobacterium tuberculosis, H37RV, 168 h; read-out: MIC
[3] = test system: Acinetobacter baumannii ATCC 19606; assay: MIC determination by microbroth dilution; assay type: cell-based; settings: ATCC19606
[4] = test system: Proteus mirabilis ATCC 25933; assay: MIC determination by microbroth dilution; assay type: cell-based; settings: ATCC25933
[5] = test system: E. coli K12; assay: MIC determination by microbroth dilution; assay type: cell-based, Escherichia coli; settings: Escherichia coli, K12
[6] = test system: E. faecalis ATCC 33186; assay: MIC determination by microbroth dilution; assay type: cell-based, Enterococcus faecalis; settings: Enterococcus faecalis, ATCC33186
[7] = test system: Strep. pyogenes ATCC 700294; assay: MIC determination by microbroth dilution; assay type: cell-based, Streptococcus pyogenes; settings: Streptococcus pyogenes, ATCC700294, read-out: MIC S. pyogenes
[8] = test system: P. aeruginosa PAO1; assay: MIC determination by microbroth dilution; assay type: cell-based, Pseudomonas aeruginosa; settings: Pseudomonas aeruginosa
[9] = test system: E. coli K12 ΔtolC; assay: microbe, parasite or virus in culture; assay type: cell-based; settings: Escherichia coli, read-out: MIC E. coli K12 ΔtolC
[10] = test system: Burkholderia cepacia ATCC 25416; assay: MIC determination by microbroth dilution; assay type: cell-based; settings: ATCC25416, read-out: MIC B. cepcia
[11] = test system: B. anthracis Sterne 34F2; assay: microbe, parasite or virus in culture; assay type: cell-based, Bacillus anthracis; settings: Bacillus anthracis, STERNE34F2, read-out: MIC B. anthracis 34F2
[12] = test system: Klebsiella pneumoniae ATCC 33495; assay: MIC determination by microbroth dilution; assay type: cell-based; settings: ATCC33495
[13] = test system: S. aureus 8325 or strain ATCC 29213; assay: MIC determination by microbroth dilution; assay type: cell-based, Staphylococcus aureus; settings: Staphylococcus aureus, ATCC29213; S. aureus 8325 or strain ATCC 29213 (for 1471-1544)
[14] = test system: Strep. pneumoniae DAW27 or strain R6; assay: MIC determination by microbroth dilution; assay type: cell-based, Streptococcus pneumoniae; settings: Streptococcus pneumoniae; Strep. pneumoniae DAW27 or strain R6 (for 1443-1544); read-out: MIC S. pneumoniae
[15] = test system: Strenotrophomonas maltophilia ATCC 13637; assay: MIC determination by microbroth dilution; assay type: cell-based

| Structure (SMILES) | MIC [1] [µg/mL] | MIC [2] [µg/mL] | MIC [3] [µg/mL] | MIC [4] [µg/mL] | MIC [5] [µg/mL] | MIC [6] [µg/mL] | MIC [7] [µg/mL] | MIC [8] [µg/mL] | MIC [9] [µg/mL] | MIC [10] [µg/mL] | MIC [11] [µg/mL] | MIC [12] [µg/mL] | MIC [13] [µg/mL] | MIC [14] [µg/mL] | MIC [15] [µg/mL] |
| --- | --- | --- | --- | --- | --- | --- | --- | --- | --- | --- | --- | --- | --- | --- | --- |
| CN[C@@H]1[C@H](O)[C@H](NC)C2O[C@]3(O)C(OC2[C@H]1O)O[C@H](C)C[C@H]3NC(=O)Cc1ccc(-c2ccc(Cl)cc2)cn1 (stereo partly drawn) [Compound 1535, 3′-Dihydro-3′-deoxy-4(R)-(5-(4-chlorophenyl)pyridin-2-yl)acetylamino spectinomycin trihydrobromide] | > 200 | 3.12 | > 200 | > 200 | 200 | 3.1 | 1.6 | 100 | < 6.25 | > 200 | > 200 | > 200 | 50 | 0.8 | > 200 |
| CN[C@@H]1[C@H](O)[C@H](NC)C2O[C@]3(O)C(OC2[C@H]1O)O[C@H](C)C[C@H]3NC(=O)Cc1csc(Nc2ccccc2)n1 (stereo partly drawn) [Compound 1520, 3′-Dihydro-3′-deoxy-4(R)-(2-(phenylamino)thiazol-4-yl)acetylamino spectinomycin trihydrobromide] | > 200 | 6.25 | > 200 | > 200 | > 200 | 100 | 3.1 | > 200 | 25 | > 200 | > 200 | > 200 | 100 | 3.1 | > 200 |
| CN[C@@H]1[C@H](O)[C@H](NC)C2O[C@]3(O)C(OC2[C@H]1O)O[C@H](C)C[C@H]3NC(=O)C[C@@H](N)c1ccc(F)cc1 (stereo partly drawn) [Compound 1487, 3′-Dihydro-3′-deoxy-4(R)-[3(R)-amino,3-(4-fluorophenyl)]propanoylamino spectinomycin Trihydrochloride] | > 200 | 200 | > 200 | > 200 | 200 | > 200 | 50 | > 200 | 200 | > 200 | > 200 | > 200 | > 200 | 12.5 | > 200 |
| CN[C@@H]1[C@H](O)[C@H](NC)C2O[C@]3(O)C(OC2[C@H]1O)O[C@H](C)C[C@H]3NC(=O)CCNC(=O)c1ccccc1 (stereo partly drawn) [Compound 1503, 3′-Dihydro-3′-deoxy-4(R)-3-benzamido propanoylamino spectino-mycin Dihydrochloride] | > 200 | > 200 | > 200 | > 200 | > 200 | > 200 | > 200 | > 200 | > 200 | > 200 | > 200 | > 200 | > 200 | > 200 | > 200 |
| CN[C@@H]1[C@H](O)[C@H](NC)C2O[C@]3(O)C(OC2[C@H]1O)O[C@H](C)C[C@H]3NC(=O)Cc1csc(Nc2ccc(F)cc2)n1 (stereo partly drawn) [Compound 1538, 3′-Dihydro-3′-deoxy-4(R)-(2-((4-fluorophenyl)amino)thiazol-4-yl)acetylamino spectinomycin tribromide] | > 200 | 6.25 | > 200 | > 200 | > 200 | 25 | 6.25 | 200 | 25 | > 200 | > 200 | > 200 | 100 | 3.1 | > 200 |
| CN[C@@H]1[C@H](O)[C@H](NC)C2O[C@]3(O)C(OC2[C@H]1O)O[C@H](C)C[C@H]3NC(=O)[C@H](Cc1ccccc1)NC(=O)CN (stereo partly drawn) [Compound 1502, 3′-Dihydro-3′-deoxy-4(R)-[2(S)-(2-aminoacetamido)-3-phenyl]-propanoylamino spectinomycin Trihydrochloride] | > 200 | > 200 | > 200 | > 200 | > 200 | > 200 | > 200 | > 200 | > 200 | > 200 | > 200 | > 200 | > 200 | > 200 | > 200 |
| CN[C@@H]1[C@H](O)[C@H](NC)C2O[C@]3(O)C(OC2[C@H]1O)O[C@H](C)C[C@H]3NC(=O)Cc1ccc(-c2ccc(F)cc2)cn1 (stereo partly drawn) [Compound 1542, 3′-Dihydro-3′-deoxy-4(R)-(5-(4-fluorophenyl)pyridin-2-yl)acetylamino spectinomycin tribromide] | > 200 | 3.12 | > 200 | > 200 | > 200 | 25 | 6.25 | > 200 | 12.5 | > 200 | > 200 | > 200 | 100 | 3.1 | > 200 |
| CN[C@@H]1[C@H](O)[C@H](NC)C2O[C@]3(O)C(OC2[C@H]1O)O[C@H](C)C[C@H]3NC(=O)Cc1ccc([N+](=O)[O-])cn1 (stereo partly drawn) [Compound 1490, 3′-Dihydro-3′-deoxy-4(R)-(5-nitropyridin-2-yl)acetylamino spectinomycin trihydrobromide] | > 200 | 6.25 | > 200 | > 200 | 200 | 50 | 12.5 | > 200 | 12.5 | > 200 | > 200 | > 200 | 100 | 12.5 | > 200 |
| CN[C@@H]1[C@H](O)[C@H](NC)C2O[C@]3(O)C(OC2[C@H]1O)O[C@H](C)C[C@H]3NC(=O)c1ccccc1F (stereo partly drawn) [Compound 1492, 3′-Dihydro-3′-deoxy-4(R)-(2-fluorobenzene-1-yl)carboxylicamino spectinomycin dihydrochloride] | > 200 | > 200 | > 200 | > 200 | > 200 | > 200 | 50 | > 200 | 200 | > 200 | > 200 | > 200 | > 200 | 100 | > 200 |
| CN[C@@H]1[C@H](O)[C@H](NC)C2O[C@]3(O)C(OC2[C@H]1O)O[C@H](C)C[C@H]3NC(=O)CN (stereo partly drawn) [Compound 1470, 3′-Dihydro-3′-deoxy-4(R)-(2-amino)acetylamino spectinomycin Trihydrochloride] | > 200 | 200 | > 200 | > 200 | > 200 | > 200 | > 200 | > 200 | > 200 | > 200 | > 200 | > 200 | > 200 | > 200 | > 200 |
| CN[C@@H]1[C@H](O)[C@H](NC)C2O[C@]3(O)C(OC2[C@H]1O)O[C@H](C)C[C@H]3NCC1CC1 (stereo partly drawn) [Compound 1419, 3′-Dihydro-3′-deoxy-4(R)-cyclopropylmethylamino spectinomycin Trihydrochloride] | > 200 | 50 | > 200 | > 200 | 100 | 200 | 50 | > 200 | 25 | > 200 | 50 | > 200 | 100 | 100 | > 200 |
| CN[C@@H]1[C@H](O)[C@H](NC)C2O[C@]3(O)C(OC2[C@H]1O)O[C@H](C)C[C@H]3NC(=O)Cc1cc(Cl)ccn1 (stereo partly drawn) [Compound 1544, 3′-Dihydro-3′-deoxy-4(R)-(4-chloropyridin-2-yl)acetylamino spec-tinomycin tribromide] | > 200 | 0.8 | > 200 | > 200 | > 200 | 100 | 12.5 | > 200 | 12.5 | > 200 | > 200 | > 200 | 50 | 6.25 | > 200 |
| CN[C@@H]1[C@H](O)[C@H](NC)C2O[C@]3(O)C(OC2[C@H]1O)O[C@H](C)C[C@H]3NC(=O)[C@@H](O)CCN (stereo partly drawn) [Compound 1493, 3′-Dihydro-3′-deoxy-4(R)-(2(S)-4-amino-2-hydroxy)butanoylamino spectinomycin trihydrochloride] | 100 | > 200 | > 200 | > 200 | 100 | > 200 | 50 | > 200 | 25 | > 200 | > 200 | > 200 | > 200 | 50 | > 200 |
